In patent US20240006031A1, “PHYSIOLOGICALLY-BASED PHARM[…] MODEL” (CHA UNIVERSITY INDUSTRY-ACADEMIC COOPERATION FOUNDATION, priority 2020, published 2024):
Read-outs that look alike come from different tables or passages of the source.

Columns and labels:
[1] = PFHxS standard exposure calculation and risk assessment using human PBPK core model; settings: standard exposure 9.7 μg/kg/day
Description: The final parameters were used to calculate the correlation between the mean blood concentration at steady state and the external dose during repeated exposure to PFHxS. Specifically, using a human PBPK model constructed using human physiological parameters and substance-intrinsic parameters, a dose range was simulated and set, and the correlations described above were derived using regression analysis.
Next, the interspecies uncertainty factor (UFA) was applied to calculate the steady-state Caverage,human in humans. Specifically, the PFHxS PODhuman in the human body was calculated by using the correlation equation between the average blood concentration (Caverage) and the external dose during repeated exposure to PFHxS from which Caverage,human was derived. Next, the intraspecies uncertainty factor (UFH) was applied to the PODhuman to finalize the PFHxS standard exposure in the human body.
The PFHxS reference standard dose for external dose to PFHxS was used to derive the margin of safety (MoS) of PFHxS for men and women. Specifically, the blood PFHxS concentrations of men in Siheung (2.29 ng/mL) and women in Daegu (1.75 ng/mL), which are highly exposed to PFHxS, were substituted into the above correlation equation between the average blood concentration (Caverage) and the external dose to calculate the external dose.

[2] = Internal dose of PFHxS from rat model Caverage,rat at NOAEL with uncertainty factors; parameters: species or system human; settings: versus internal dose 412.7 ng/mL
Experimental: First, to obtain the internal dose of PFHxS, the UFA was applied to the rat model by finding the Caverage,rat resulting from repeated exposure to NOAEL.
As a result, BEPOD was calculated as 4127.4 ng/mL.

[3] = cited from earlier work

O=S(=O)(O)C(F)(F)C(F)(F)C(F)(F)C(F)(F)C(F)(F)C(F)(F)F [PFHxS]
margin of safety (MoS) ([1]; men (Siheung, blood PFHxS 2.29 ng/mL)): 180.3
margin of safety (MoS) ([1]; women (Daegu, blood PFHxS 1.75 ng/mL)): 235.9
actual blood levels in Koreans compared with calculated internal dose [2]: in the safe zone
blood PFHxS concentration ([3]; men in Daegu): 2.19 ng/mL
blood PFHxS concentration ([3]; men in Siheung): 2.29 ng/mL
blood PFHxS concentration ([3]; women in Daegu): 1.75 ng/mL
blood PFHxS concentration ([3]; women in Siheung): 1.35 ng/mL
